Test results from US7947307B2, “Methods and compositions for imaging” (Mount Sinai School of Medicine of New York University, priority 2004, dated 2011).
Where two headings read alike, the source gives them in different places.

Experiments:
[1] = cited from earlier work
[2] = cited from earlier work; remark: listed apart in the source
[3] = cited from earlier work; remark: listed apart in the source
[4] = mouse; cited from earlier work
[5] = system: elicited peritoneal macrophages isolated from apoE-/- mice; experiment: Cholesterol efflux assay in cholesterol-loaded elicited peritoneal macrophages; type: cell-based, mouse; settings: 1.5 μM
Description: Cholesterol efflux assays. Human apo A-I was prepared as described before (25). Low density lipoprotein (LDL, 1.019<density<1.063 g/mL) and subfraction 3 of high density lipoprotein (HDL3, 1.125<density<1.21 g/mL) were isolated by sequential ultracentrifugation of human plasma. Lipoproteins were extensively dialyzed against phosphate buffered saline (PBS) and protein content measured with a CBQCA Protein Quantitation Kit (Molecular Probes, Eugene, Oreg.). The quality and purity of the lipoprotein preparations was confirmed by SDS-PAGE by the identification of appropriate apolipoproteins. Acetylated LDL (AcLDL) was prepared according to (26). Dulbeco's Modified Eagle medium (DMEM), L-glutamine, Penicillin-Streptomycin solutions, fetal bovine serum (FBS), and PBS were purchased from the Invitrogen Corporation (Carlsbad, Calif.). […]
For measurement of cholesterol efflux, aliquots of the media were collected at 6 and 18 h, and tritium cpm measured by scintillation counting. […] Free and esterified cholesterol content was measured prior to and after efflux under the various treatment conditions. After extraction of lipids, cells were lysed with 0.2 N NaOH and protein content determined by Lowry assay. Total cholesterol and free cholesterol were determined by using kits from Roche Applied Science. Cholesteryl ester content was determined by subtracting free cholesterol from total cholesterol.

[6] = concentration 1M (values in parentheses)

Molecule | r1, 0.5 T 37° C. [1] | Viscosity ([2]; concentration 0.5M) | Osmolality ([3]; concentration 0.5M) | Viscosity ([2]; concentration 0.01M) | Osmolality ([3]; concentration 0.01M) | t1/2 in the circulation [4] | Viscosity [2, 6] | Osmolality [3, 6] | cholesterol efflux to HDL ([5]; [3H]cholesterol-AcLDL loaded macrophages with F-1394, acceptor HDL3 50 μg/mL) | cholesterol efflux to apoA-I ([5]; [3H]cholesterol-AcLDL loaded macrophages with F-1394, acceptor apoA-I 50 μg/mL)
Gd-DTPA-BMEA [Gadoversetamide] | 4.7 mM⁻¹ s⁻¹ | 2.0 cP | 1.11 osmol/kg |  |  |  |  |  |  | 
Cc1[nH+]cc(COP(=O)([O-])[O-])c(CN(CCN(CC(=O)[O-])Cc2c(COP(=O)([O-])O)c[nH+]c(C)c2O)CC(=O)[O-])c1O.[Mn].[Na+].[Na+].[Na+] [Mangafodipir, Mn-DPDP] | 1.9 mM⁻¹ s⁻¹ |  |  | 0.7 cP | 0.29 osmol/kg |  |  |  |  | 
CNC[C@H](O)[C@@H](O)[C@H](O)[C@H](O)CO.CNC[C@H](O)[C@@H](O)[C@H](O)[C@H](O)CO.O=C([O-])CN(CCN(CC(=O)[O-])CC(=O)O)CCN(CC(=O)O)C(COCc1ccccc1)C(=O)[O-].[Gd+3] (centres unmarked) [Gadobenate, Gd-BOPTA] | 4.4 mM⁻¹ s⁻¹ | 5.3 cP | 1.97 osmol/kg |  |  |  |  |  |  | 
HDL-apoAI: apolipoprotein AI of HDL |  |  |  |  |  | roughly 10 h |  |  |  | 
O=C([O-])CN1CCN(CC(=O)[O-])CCN(CC(=O)[O-])CCN(CC(=O)[O-])CC1.[Gd+3] [Gadoterate, Gd-DOTA] | 3.6 mM⁻¹ s⁻¹ | 2.0 cP | 1.35 osmol/kg |  |  |  | (11.3) cP | (4.02) osmol/kg |  | 
Gd-HPDO3A [Gadoteridol] | 3.7 mM⁻¹ s⁻¹ | 1.3 cP | 0.63 osmol/kg |  |  |  | (3.9) cP | (1.91) osmol/kg |  | 
CNC(=O)CN(CCN(CCN(CC(=O)[O-])CC(=O)NC)CC(=O)[O-])CC(=O)[O-].[Gd+3] [Gadodiamide, Gd-DTPA-BMA] | 3.9 mM⁻¹ s⁻¹ | 1.4 cP | 0.79 osmol/kg |  |  |  | (3.9) cP | (1.90) osmol/kg |  | 
CNC[C@H](O)[C@@H](O)[C@H](O)[C@H](O)CO.CNC[C@H](O)[C@@H](O)[C@H](O)[C@H](O)CO.O=C([O-])CN(CCN(CC(=O)[O-])CC(=O)O)CCN(CC(=O)[O-])CC(=O)O.[Gd+3] [Gadopenetate, Gd-DTPA] | 3.8 mM⁻¹ s⁻¹ | 2.9 cP | 1.96 osmol/kg |  |  |  |  |  |  | 
O=C([O-])CN1CCN(CC(=O)[O-])CCN([C@H](CO)[C@H](O)CO)CCN(CC(=O)[O-])CC1.[Gd+3] (racemic) [Gadobutrol, Gd-DO3A-butrol] | 3.6 mM⁻¹ s⁻¹ | 1.4 cP | 0.57 osmol/kg |  |  |  | (3.7) cP | (1.39) osmol/kg |  | 
O=C(Nc1ccccc1)c1cc([N+](=O)[O-])ccc1Cl [GW9662] |  |  |  |  |  |  |  |  | did not affect | did not affect
